# Reference: publication PMC10757358 (The Journal of steroid biochemistry and molecular biology, 2023)
# Assays:
# CYP11B2 [1] = molecular target: T1, CYP11B2 (Homo sapiens, UniProt P19099); test: biochemical
# T1 sequence (P19099 25-503): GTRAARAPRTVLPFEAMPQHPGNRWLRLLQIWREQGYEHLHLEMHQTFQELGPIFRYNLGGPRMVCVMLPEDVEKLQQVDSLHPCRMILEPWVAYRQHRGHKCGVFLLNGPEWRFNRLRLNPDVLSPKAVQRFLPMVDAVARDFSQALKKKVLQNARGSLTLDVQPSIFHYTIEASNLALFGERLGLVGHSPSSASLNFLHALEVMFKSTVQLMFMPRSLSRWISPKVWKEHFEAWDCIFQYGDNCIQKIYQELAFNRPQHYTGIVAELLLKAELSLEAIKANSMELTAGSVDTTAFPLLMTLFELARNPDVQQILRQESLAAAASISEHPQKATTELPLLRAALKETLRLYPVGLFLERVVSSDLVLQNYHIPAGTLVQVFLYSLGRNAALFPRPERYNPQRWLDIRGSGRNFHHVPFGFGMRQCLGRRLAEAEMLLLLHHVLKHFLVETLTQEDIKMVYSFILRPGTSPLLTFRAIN
# CYP11B1 [2] = molecular target: T2, CYP11B1 (Homo sapiens, UniProt P15538); test: biochemical
# T2 sequence (P15538 25-503): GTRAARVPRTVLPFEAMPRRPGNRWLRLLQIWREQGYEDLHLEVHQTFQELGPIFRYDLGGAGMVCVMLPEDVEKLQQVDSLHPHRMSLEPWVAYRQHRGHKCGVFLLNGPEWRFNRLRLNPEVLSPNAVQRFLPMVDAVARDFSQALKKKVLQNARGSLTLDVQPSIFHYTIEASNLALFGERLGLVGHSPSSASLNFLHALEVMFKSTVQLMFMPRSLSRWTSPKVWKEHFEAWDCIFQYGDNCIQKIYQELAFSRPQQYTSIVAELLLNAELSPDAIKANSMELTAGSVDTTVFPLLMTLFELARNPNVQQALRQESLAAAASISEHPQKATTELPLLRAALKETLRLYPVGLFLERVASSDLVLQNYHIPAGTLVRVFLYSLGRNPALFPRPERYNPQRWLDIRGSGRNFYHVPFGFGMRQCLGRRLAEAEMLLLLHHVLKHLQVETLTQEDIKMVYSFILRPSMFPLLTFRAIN
# CYP11B2 [3] = conditions: read-out: reported IC50, CYP11B2; in-vitro studies; cited from earlier work
# [4] = test system: NCI-H295R human adrenocortical cancer cell line; conditions: NCI-H295R cells
# CYP11A1 [5] = molecular target: T3, CYP11A1 (Homo sapiens, UniProt P05108); test: biochemical
# T3 sequence (P05108 40-521): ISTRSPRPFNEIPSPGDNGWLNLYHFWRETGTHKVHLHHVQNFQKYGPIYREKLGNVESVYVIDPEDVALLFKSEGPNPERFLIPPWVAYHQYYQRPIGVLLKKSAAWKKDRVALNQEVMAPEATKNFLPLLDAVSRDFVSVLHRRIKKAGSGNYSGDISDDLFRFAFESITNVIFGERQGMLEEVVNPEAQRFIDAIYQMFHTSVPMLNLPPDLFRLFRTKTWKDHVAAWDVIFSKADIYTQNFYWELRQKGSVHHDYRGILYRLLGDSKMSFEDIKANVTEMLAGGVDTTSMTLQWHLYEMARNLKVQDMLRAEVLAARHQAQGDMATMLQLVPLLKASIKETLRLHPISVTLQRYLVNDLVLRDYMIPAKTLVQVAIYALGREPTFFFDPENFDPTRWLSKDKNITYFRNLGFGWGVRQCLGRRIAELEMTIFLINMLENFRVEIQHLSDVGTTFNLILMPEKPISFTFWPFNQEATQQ
# CYP11B1 [6] = conditions: read-out: reported IC50, CYP11B1; in-vitro studies; cited from earlier work
# CYP11A1 [7] = molecular target: T3, CYP11A1
SMILES,Kd (CYP11B2 [1]),Kd (CYP11B1 [2]),IC50 (CYP11B2 [3]),"aldosterone production, % of baseline ([4]; 0-1000 nM LCI699, 24 h)","androstenedione level ([4]; 0-1000 nM LCI699, 24 h)","corticosterone, % of the baseline ([4]; 0-1000 nM LCI699, 24 h)","cortisol production, % of baseline ([4]; 0-1000 nM LCI699, 24 h)","11-deoxycortisol level ([4]; higher concentrations of LCI699, changes did not reach statistical significance)",Kd (CYP11A1 [5]),IC50 (CYP11B1 [6]),inhibition (CYP11A1 [7])
"C[C@]12CC[C@H]3[C@@H](CCC4=CC(=O)CC[C@@]43C)[C@@H]1CC[C@@H]2C(=O)CO [DOC, 11-deoxycorticosterone]",270 nM,420 nM,–,–,–,–,–,–,–,–,–
"N#Cc1ccc([C@H]2CCc3cncn32)c(F)c1 [LCI699, Osilodrostat]",–,–,[…],2 ± 3%,remained unchanged,1 ± 2%,13 ± 4%,appeared to increase,18.8 µM,[…],< 25%
